From ChEMBL document CHEMBL1123177, “1H NMR configurational correlation for retro-inverso dipeptides: application to the determination of the absolute configuration of "enkephalinase" inhibitors. Relationships between stereochemistry and enzyme recognition” (J Med Chem, 1986)

target: Neprilysin (Oryctolagus cuniculus) (UniProt P08049); test: Concentration for 50% inhibition of activity of rabbit kidney enkephalinase
Sequence (P08049 whole entry, looked up): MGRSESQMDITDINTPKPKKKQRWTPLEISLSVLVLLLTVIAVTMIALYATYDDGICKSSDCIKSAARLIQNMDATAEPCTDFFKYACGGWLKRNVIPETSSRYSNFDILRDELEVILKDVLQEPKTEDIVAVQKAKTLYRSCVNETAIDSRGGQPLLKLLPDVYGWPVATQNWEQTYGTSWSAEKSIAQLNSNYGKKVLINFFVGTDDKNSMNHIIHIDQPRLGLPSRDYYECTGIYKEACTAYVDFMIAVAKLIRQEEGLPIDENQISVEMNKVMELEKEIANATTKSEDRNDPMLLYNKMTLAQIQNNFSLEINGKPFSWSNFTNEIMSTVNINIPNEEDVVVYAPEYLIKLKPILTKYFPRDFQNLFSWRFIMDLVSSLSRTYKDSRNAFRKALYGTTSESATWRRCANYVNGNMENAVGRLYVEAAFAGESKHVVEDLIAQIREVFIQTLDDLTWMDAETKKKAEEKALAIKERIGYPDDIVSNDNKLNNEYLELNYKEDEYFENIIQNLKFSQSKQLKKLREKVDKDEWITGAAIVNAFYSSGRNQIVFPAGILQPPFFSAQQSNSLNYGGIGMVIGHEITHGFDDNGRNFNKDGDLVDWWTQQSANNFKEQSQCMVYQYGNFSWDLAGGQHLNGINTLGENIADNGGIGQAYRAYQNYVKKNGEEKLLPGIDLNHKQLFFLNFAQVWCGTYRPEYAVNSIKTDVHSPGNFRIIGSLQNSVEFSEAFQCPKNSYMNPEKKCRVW

Structure (SMILES)	IC50
C[C@H](C(=O)O)C(=O)N[C@H](CS)Cc1ccccc1	0.65 nM
O=C(O)CC(=O)NC(CS)Cc1ccccc1 (single isomer, unassigned; 7a)	2.3 nM
CC(C)C[C@@H](C(=O)O)C(=O)N[C@H](CS)Cc1ccccc1 (racemic)	1.5 nM
C[C@@H](C(=O)O)C(=O)N[C@H](CS)Cc1ccccc1 (racemic)	0.54 nM
O=C(O)CC(=O)NC(CS)Cc1ccccc1 (single isomer, unassigned; 7b)	210 nM
CC(C)C[C@H](C(=O)O)C(=O)N[C@H](CS)Cc1ccccc1	0.75 nM
